Measurements as given in patent publication US7803760B2, “Methods of inducing ovulation” (Merck Serono SA, priority 2000, dated 2010).

Assays:
[1] = tested on: rat ovarian granulosa cells; experiment: Rat ovarian granulosa cell cAMP levels in vitro (cAMP RIA of conditioned media); format: cell-based; settings: 25 micromolar compound with sub-effective (0.1 pM) gonadotropin, 48 hrs, FIG. 2
Procedure: Ovaries were removed from immature 25 day old, hypophysectomized, diethylstilbesterol treated Sprague-Dawley rats. The ovaries were repeatedly punctured with 27 gauge needles to liberate granulosa cells from the follicles. Cells were washed and re-suspended in McCoys SA media+0.1% BSA+2 μM androstenedione. Viable cells in number of 100,000 were loaded into 6-well tissue culture dishes in a 1.0 ml volume (with Compound 1 and Compound 2 at a concentration of 25 micromolar, either alone or in conjunction with a low, 0.1 pM dose of gonadotropin). Plates were incubated in a 37° C. incubator, 100% humidity, 5.0% CO2 for 48 hrs. Conditioned media were assayed in a cAMP specific radioimmunoassay (RIA). Results are expressed as mean plus or minus standard deviations.

immature female rats [2] = experiment: Follicle maturation in vivo: co-administration with sub-optimal FSH, then ovulatory hCG, oocytes in oviduct counted; parameters: species or system rat; settings: FIG. 3
Procedure: Mature ovarian follicles generated in immature female rats by treatment with a sub-optimal dose of FSH (1.08 IU/rat/injection; bid×3 days) with and without co-administration of Compound 1 (0.1, 1, 10, and 50 mg/kg/injection: bid×3 days). […] The PDE inhibitors were given in conjunction with sub-optimal doses of FSH.
All injections were subcutaneously administered. […] Results are expressed as mean plus or minus standard deviations. […] As also noted in FIG. 3, a PDE inhibitor (Compound 1) inhibited (rather than stimulated) both ovulation administered at 50 mg/kg.

immature female rats [3] = experiment: In vivo ovulation model: FSH-matured follicles in immature rats, oocytes in oviduct counted 18 hours after administration; parameters: species or system rat; settings: FSH pretreated rats
Text: The role of FSH in any ovulation induction regimen is for promoting follicular development and maturation, not ovulation induction.
All injections were subcutaneous. Results are expressed as mean plus or minus standard deviations. […] The effects of Compound 1, a known PDE inhibitor, are shown.
Data represent average number of oocytes in oviducts of all rats in each group and frequency of ovulating rats. […] Results are expressed as mean plus or minus standard deviations.
Data represent average number of oocytes in oviducts of all rats in each group and frequency of ovulating rats. Results are expressed as mean plus or minus standard deviations.
(§1) Following FSH induced follicular maturation (2.16 IU/rat/injection; bid×2 days) Compound 2 was either injected subcutaneously (subcutis) or administered by oral gavage. Ovulation was determined 18 hours after Compound 2 administration by counting oocytes in oviduct. Data represent average number of oocytes in oviducts of all rats in each group and frequency of ovulating rats. Results are expressed as mean plus or minus standard deviations.
as §1, with “days) […] was either” for “days) Compound 2 was either”

immature rats = experiment: Ovulation and fertility in FSH/PMSG pretreated immature rats; format: in vivo, rat; settings: single subcutaneous injection, FIG. 10
Procedure: Follicular maturation was induced in immature rats with FSH (4.33 IU/rat/injection; bid×2 days) and Pregnant Mare's Serum Gonadotropin (PMSG) (1.5 IU/rat/injection; bid X 2 days). […] FSH and PMSG induced rats were then treated with either Compound 2 (12 rats) or vehicle (12 rats) by subcutaneous administration. In one cohort of rats (6 rats per treatment), ovulation was determined 18 hours after Compound 2 or vehicle administration by counting oocytes in oviduct. To assess fertility, another cohort of rats (6 rats per treatment) were individually placed overnight in a cage together with a single adult male rat of proven fertility. The next day, male rats were removed and the females were caged together by group until the day of parturition. The number of live full-term pups observed at the time of parturition was recorded. […] Results for both ovulation and live pups are expressed as mean plus or minus standard deviations.

[4] = single subcutaneous injection co-administered with sub-effective dose of hCG
[5] = subcutaneous, compound alone without hCG
[6] = oral gavage, compound alone without hCG

SMILES | cAMP levels [1] | ovulation (oocytes in oviduct) (immature female rats [2]; 50 mg/kg/injection bid x 3 days s.c. with sub-optimal FSH (1.08 IU), ovulatory hCG 20 IU) | ability of a sub-optimal dose of FSH to prepare follicles to ovulate (immature female rats [2]; increasing doses 0.1, 1, 10, 50 mg/kg/injection bid x 3 days s.c.) | ovulation (oocytes in oviduct) (immature female rats [3]; [4]) | ovulation (oocytes in oviduct) (immature female rats [3]; [5]) | number of live full-term pups at parturition (immature rats; FSH/PMSG pretreated rats mated overnight) | ovulation (oocytes in oviduct) (immature rats; FSH/PMSG pretreated rats, 18 hours) | ovulation (oocytes in oviduct) (immature female rats [3]; [6])
COc1ccc([C@]2(C#N)CC[C@@H](C(=O)O)CC2)cc1OC1CCCC1 [Compound 1, Cis-4-cyano-4-(3-(cyclopentyloxy)-4-methoxyphenyl)cyclohexane-1-carboxylic acid] | significant increase in cAMP levels | inhibited | failed to enhance | induction of ovulation | induction of ovulation |  |  | 
COc1ccc(C(=O)Nc2c(Cl)cncc2Cl)cc1OC1CCCC1 [Compound 2, 3-(Cyclopentyloxy)-N-(3,5-dichloropyridin-4-yl)-4-methoxybenzamide] | significant increase in cAMP levels |  |  |  | induction of ovulation | increased number of live pups | induction of ovulation | induction of ovulation
CCOc1cc2cc(CO)c(CO)c(-c3ccnc(-n4nc(-c5cccnc5)c5ccccc5c4=O)c3)c2cc1OCC.Cl [Compound 3, 2-(4-(6,7-Diethoxy-2,3-bis(hydroxymethyl)naphthalen-1-yl)pyridin-2-yl)-4-(3-pyridyl)pthalazin-1(2H)-one hydrochloride] |  |  |  |  | induction of ovulation |  |  | induction of ovulation
Clc1nc2c(N3CCCC3)nc(N3CCNCC3)nc2nc1NCc1ccccc1 [Compound 4, 7-Benzylamino-6-chloro-2-piperazino-4-pyrrolidinopteridine] |  |  |  | induction of ovulation | little or no ovulation |  |  | 
